Among the data in ChEMBL document CHEMBL1201862, “PubChem BioAssay data set” (2004) are IC50, AC50 and EC50 values, retold here.

In assay [1] the target is Ras and Rab interactor 1/Tyrosine-protein kinase ABL1 (Homo sapiens, UniProt P00519+Q13671). The assay is classed as functional.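 Note: biochemical TR-FRET dose-response test measuring inhibition of binding between Rin1 and Abl proteins.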
A short description of assay [2]: bead-based luminescence quenchers, dual-tagged ARNT – biochemical, AlphaScreen, cherry-pick, artefact control for ARNT-TACC3 interaction inhibitor project, dose response (AID 651705).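 Note: AlphaScreen bead proximity signal that flags compounds interfering with the detection technology; potency reflects signal decrease which marks the compound as an assay artifact.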 The assay is classed as functional. On the technique in general: Bead proximity is the source of the signal in Alpha formats.
Assay [3] in a line: activation of miR-122 Renilla sensor silencing – cell-based, Huh7 psiCHECK-miR122, Renilla luciferase, cherry-picked, dose response (AID 651956).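 Note: huh7 hepatoma cells stably carrying a psiCHECK-2 miR-122 sensor plasmid; renilla luciferase signal reporting endogenous miR-122 activity after 48 h compound exposure.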 The assay is classed as functional.
The target in assay [4] is T1, Cysteine protease ATG4B (Homo sapiens, UniProt Q9Y4P1).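 Note: Fluorescence-based dose-response confirmation assay measuring inhibition of ATG4B activity.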
T1 sequence (Q9Y4P1 whole entry): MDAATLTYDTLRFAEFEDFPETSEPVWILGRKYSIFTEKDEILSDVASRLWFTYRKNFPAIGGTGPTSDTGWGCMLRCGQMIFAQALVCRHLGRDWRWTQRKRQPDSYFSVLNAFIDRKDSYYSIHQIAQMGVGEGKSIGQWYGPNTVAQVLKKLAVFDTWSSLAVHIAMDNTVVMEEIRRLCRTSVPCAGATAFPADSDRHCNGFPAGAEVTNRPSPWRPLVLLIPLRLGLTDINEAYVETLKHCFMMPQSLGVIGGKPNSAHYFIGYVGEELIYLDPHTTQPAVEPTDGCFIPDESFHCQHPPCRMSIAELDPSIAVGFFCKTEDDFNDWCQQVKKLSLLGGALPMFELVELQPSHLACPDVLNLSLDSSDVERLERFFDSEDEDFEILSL
The format is functional.

Assay [5] has as its target Phospholipase A2 (Homo sapiens, UniProt P04054). The format is functional.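 Note: confirmatory dose-response counterscreen on phospholipase A2, testing hits that came from an ultra-high-throughput screen for ATG4B inhibitors.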
Assay [6] concerns the target Nonstructural protein 1 (Influenza A virus, UniProt Q194T2). The format is functional, Influenza A virus (A/California/07/2009(H1N1)).
Assay [7] addresses T2, Caspase-3 (Homo sapiens, UniProt P42574).
T2 sequence (P42574 whole entry): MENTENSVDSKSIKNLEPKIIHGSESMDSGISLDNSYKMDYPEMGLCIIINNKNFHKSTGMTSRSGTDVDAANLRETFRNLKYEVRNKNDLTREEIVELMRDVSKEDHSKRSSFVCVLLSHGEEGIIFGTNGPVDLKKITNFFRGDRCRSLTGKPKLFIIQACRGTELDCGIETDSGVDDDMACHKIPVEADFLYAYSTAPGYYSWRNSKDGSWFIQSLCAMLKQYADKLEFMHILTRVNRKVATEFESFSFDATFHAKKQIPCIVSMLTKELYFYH
The format is functional.

The target in assay [8] is T3, Sentrin-specific protease 7 (Homo sapiens, UniProt Q9BQF6).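 Note: Luminescence-based dose-response confirmation of ultra-high-throughput screening hits, measuring inhibition of SENP7.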
T3 sequence (Q9BQF6 whole entry): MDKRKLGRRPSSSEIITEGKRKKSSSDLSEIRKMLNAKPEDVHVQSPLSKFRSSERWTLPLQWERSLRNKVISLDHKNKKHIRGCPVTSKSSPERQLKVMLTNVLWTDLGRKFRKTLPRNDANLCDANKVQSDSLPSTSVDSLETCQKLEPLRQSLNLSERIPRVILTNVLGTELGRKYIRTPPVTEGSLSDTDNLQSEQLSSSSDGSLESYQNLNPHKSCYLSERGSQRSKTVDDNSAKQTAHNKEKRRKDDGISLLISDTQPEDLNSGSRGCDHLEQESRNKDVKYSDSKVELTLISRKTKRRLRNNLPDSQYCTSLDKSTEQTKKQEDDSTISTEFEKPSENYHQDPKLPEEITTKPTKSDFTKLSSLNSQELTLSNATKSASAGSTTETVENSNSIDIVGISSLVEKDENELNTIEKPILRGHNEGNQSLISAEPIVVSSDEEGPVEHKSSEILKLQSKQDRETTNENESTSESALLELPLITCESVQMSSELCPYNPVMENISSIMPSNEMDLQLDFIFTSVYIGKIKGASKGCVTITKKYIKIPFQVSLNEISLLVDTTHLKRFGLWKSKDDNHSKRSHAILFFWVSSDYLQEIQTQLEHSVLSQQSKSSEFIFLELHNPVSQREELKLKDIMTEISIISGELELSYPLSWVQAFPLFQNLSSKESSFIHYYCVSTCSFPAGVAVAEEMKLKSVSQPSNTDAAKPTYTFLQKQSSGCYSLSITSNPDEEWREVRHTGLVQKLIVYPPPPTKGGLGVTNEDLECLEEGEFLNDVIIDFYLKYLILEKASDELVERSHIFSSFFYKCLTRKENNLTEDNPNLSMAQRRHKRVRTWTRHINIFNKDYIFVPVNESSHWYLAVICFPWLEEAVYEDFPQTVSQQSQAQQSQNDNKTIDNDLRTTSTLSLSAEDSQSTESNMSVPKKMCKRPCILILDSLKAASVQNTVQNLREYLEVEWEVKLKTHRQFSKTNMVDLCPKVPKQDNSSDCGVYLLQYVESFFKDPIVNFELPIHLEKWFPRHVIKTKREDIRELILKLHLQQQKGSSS
The assay is classed as functional.

In assay [9] the target is T4, Heat shock factor protein 1 (Mus musculus, UniProt P38532).
T4 sequence (P38532 whole entry): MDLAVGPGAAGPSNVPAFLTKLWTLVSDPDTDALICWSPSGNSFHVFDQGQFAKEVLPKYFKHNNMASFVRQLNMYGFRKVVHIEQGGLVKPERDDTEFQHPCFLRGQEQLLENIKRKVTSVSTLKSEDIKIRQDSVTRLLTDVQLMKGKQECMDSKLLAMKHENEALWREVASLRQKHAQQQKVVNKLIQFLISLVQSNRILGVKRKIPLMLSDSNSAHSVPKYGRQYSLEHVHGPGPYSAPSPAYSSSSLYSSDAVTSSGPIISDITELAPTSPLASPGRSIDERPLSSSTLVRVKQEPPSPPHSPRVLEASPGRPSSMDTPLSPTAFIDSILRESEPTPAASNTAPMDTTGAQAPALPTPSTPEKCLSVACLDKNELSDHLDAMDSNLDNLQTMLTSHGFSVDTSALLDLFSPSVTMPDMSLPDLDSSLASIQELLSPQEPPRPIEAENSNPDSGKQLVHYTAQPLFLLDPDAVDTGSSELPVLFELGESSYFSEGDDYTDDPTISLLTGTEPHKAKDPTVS
Put plainly: enhancement of HSF1-driven luciferase signal – cell-based, NIH3T3, luminescence, dose retest, confirmation (AID 435004).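 Note: stress induced by proteasome inhibitor MG132 added 30 min after compound; luciferase reporter driven by HSF1 response element in NIH3T3 cells; actives raise luminescence as potentiators of the MG132 stress response.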 The format is functional.

In assay [10] the target is T5, Sentrin-specific protease 6 (Homo sapiens, UniProt Q9GZR1).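 Note: Luminescence-based dose-response confirmatory assay of SENP6 inhibition, following up an ultra-high-throughput screen.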
T5 sequence (Q9GZR1 whole entry): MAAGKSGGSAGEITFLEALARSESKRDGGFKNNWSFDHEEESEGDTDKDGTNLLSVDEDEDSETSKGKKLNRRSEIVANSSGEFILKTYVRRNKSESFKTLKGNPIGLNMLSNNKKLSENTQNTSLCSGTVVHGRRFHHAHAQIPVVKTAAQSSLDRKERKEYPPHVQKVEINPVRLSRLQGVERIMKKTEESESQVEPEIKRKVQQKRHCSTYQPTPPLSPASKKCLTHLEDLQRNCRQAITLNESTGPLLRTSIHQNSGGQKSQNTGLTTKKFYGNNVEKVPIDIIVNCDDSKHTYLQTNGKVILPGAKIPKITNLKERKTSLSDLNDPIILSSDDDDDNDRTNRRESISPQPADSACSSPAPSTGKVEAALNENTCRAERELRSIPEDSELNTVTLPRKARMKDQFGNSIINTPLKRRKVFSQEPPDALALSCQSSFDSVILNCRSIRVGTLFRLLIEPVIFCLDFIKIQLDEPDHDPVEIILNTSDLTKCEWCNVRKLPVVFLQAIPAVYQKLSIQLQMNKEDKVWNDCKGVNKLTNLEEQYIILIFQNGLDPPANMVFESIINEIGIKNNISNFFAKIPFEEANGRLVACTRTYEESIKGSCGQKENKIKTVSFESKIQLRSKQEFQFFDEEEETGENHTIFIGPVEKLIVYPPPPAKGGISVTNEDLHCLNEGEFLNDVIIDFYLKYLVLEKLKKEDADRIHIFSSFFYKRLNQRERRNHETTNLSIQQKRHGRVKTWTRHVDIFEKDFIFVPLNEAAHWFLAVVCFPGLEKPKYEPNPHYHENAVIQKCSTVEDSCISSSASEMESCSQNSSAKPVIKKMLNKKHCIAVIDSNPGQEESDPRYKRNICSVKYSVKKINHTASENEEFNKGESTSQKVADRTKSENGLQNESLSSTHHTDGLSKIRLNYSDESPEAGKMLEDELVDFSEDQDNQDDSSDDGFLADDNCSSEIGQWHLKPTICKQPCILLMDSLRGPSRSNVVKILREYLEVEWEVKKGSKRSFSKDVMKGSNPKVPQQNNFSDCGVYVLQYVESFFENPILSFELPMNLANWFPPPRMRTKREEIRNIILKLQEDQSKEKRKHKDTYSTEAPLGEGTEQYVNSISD
The assay is classed as functional.

Assay [11] deals with T6, Sentrin-specific protease 8 (Homo sapiens, UniProt Q96LD8).
T6 sequence (Q96LD8 whole entry): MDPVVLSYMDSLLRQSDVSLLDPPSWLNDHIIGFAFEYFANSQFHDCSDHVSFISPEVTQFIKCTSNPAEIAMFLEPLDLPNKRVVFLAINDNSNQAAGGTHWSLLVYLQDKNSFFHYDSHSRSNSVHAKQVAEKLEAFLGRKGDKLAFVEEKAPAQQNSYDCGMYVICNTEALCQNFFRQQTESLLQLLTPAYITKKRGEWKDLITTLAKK
The format is functional.

For assay [12], the target named is T7, Rac GTPase-activating protein 1 (Homo sapiens, UniProt Q9H0H5).
T7 sequence (Q9H0H5 whole entry): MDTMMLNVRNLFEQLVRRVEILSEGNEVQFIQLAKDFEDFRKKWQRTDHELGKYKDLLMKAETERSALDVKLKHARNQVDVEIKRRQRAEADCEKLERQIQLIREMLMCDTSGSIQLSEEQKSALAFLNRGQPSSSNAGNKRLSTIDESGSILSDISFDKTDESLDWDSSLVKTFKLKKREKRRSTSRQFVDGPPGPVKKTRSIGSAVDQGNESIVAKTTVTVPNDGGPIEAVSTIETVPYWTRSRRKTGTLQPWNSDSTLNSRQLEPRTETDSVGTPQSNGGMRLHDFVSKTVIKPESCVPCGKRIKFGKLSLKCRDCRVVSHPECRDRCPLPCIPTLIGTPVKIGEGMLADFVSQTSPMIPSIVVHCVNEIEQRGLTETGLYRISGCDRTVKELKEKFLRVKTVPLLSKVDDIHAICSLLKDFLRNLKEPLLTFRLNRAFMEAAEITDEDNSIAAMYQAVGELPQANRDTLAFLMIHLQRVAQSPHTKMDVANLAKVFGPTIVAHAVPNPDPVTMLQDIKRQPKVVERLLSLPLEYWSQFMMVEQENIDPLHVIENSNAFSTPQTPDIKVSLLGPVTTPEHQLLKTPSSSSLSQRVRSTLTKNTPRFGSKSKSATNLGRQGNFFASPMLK
Briefly: blockers of MgcRacGAP-driven Rac1 GTP hydrolysis – biochemical, ADP Hunter fluorescence, primary and confirmatory, confirmation (AID 624330). The format is functional.

Molecules are shown by their SMILES. Activity calls are given as the source filed them.

Chain of Ras and Rab interactor 1/Tyrosine-protein kinase ABL1 (P00519 whole entry): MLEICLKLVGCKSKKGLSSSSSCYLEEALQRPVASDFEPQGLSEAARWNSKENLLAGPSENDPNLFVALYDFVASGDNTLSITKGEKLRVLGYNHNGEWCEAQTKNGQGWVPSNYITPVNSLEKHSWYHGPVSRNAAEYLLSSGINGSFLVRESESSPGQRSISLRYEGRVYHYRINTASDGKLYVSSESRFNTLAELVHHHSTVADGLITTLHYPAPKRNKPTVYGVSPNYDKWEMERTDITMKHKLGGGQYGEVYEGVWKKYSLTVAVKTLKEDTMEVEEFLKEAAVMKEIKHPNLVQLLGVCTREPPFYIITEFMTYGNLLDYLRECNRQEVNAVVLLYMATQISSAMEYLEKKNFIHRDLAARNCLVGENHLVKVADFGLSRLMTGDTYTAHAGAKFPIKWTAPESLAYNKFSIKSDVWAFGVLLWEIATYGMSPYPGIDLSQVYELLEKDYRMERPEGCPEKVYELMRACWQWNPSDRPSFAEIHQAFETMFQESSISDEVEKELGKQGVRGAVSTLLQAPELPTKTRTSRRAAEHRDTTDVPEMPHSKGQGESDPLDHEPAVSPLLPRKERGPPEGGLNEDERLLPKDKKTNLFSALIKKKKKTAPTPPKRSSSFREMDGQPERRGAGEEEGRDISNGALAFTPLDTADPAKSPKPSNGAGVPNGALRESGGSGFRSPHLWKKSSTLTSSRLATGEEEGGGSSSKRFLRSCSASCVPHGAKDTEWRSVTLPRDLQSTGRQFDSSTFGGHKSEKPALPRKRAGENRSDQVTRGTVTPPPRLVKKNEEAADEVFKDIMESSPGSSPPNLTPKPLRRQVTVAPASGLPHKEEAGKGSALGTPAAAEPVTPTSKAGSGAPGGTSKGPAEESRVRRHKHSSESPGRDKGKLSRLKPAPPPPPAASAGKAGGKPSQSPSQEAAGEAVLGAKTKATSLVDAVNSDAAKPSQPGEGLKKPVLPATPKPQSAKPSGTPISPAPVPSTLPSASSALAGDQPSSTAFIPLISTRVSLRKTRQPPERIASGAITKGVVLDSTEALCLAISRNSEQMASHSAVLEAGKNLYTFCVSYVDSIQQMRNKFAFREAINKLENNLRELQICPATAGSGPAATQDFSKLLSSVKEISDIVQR
Chain of Ras and Rab interactor 1/Tyrosine-protein kinase ABL1 (Q13671 whole entry): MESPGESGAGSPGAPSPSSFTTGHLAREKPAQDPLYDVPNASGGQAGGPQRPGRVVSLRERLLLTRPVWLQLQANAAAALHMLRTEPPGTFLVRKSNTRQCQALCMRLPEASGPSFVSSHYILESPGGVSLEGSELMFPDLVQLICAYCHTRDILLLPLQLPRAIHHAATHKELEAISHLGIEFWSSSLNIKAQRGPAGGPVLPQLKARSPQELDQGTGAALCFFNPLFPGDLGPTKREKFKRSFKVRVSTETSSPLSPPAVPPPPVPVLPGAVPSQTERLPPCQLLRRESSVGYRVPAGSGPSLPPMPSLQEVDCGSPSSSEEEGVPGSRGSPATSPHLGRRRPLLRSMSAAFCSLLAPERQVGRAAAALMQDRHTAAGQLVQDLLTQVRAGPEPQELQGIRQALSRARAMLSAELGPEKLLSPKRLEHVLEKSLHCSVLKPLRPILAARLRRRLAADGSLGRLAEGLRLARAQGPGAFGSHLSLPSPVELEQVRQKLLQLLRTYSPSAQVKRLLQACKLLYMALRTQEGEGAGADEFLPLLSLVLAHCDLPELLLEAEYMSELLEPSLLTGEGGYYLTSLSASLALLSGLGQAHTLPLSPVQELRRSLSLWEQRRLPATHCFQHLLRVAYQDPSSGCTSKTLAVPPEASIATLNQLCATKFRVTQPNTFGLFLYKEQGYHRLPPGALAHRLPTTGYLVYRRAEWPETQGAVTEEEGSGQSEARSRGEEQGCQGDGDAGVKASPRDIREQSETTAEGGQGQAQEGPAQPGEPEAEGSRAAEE
Chain of Nonstructural protein 1 (Q194T2 whole entry): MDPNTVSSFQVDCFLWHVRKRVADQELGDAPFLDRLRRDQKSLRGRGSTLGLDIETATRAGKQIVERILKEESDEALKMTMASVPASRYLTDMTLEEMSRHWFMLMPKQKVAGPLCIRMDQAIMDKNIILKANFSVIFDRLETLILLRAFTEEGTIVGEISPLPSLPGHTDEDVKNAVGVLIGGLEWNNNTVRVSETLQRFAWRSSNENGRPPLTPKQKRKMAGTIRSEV
Chain of Phospholipase A2 (P04054 whole entry): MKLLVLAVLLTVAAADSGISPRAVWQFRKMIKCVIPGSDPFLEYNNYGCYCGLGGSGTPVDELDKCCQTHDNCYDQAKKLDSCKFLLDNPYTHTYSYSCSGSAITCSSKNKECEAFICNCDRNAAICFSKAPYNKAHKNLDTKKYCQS

Consider `O=C(Nc1ccn(CCCN2CCN(Cc3ccc(F)cc3)CC2)c(=O)n1)OCc1ccccc1`, for which, in assay [1], the IC50 is 20 µM (inactive).
On to `CC(C)(C)C(=O)Nc1ccccc1C(=O)NCCCn1ccnc1`, for which the AC50 in assay [2] was 131 µM (active).
For `CNC[C@@H]1Oc2cc(C#CC3CCCC3)ccc2S(=O)(=O)N([C@@H](C)CO)C[C@@H]1C`, in assay [3], the AC50 was 4.31 µM (active).
Turning to `COc1ccc(Br)cc1CNC(=O)C1CCN(S(=O)(=O)N2CCC(C)CC2)CC1`, the IC50 in assay [4] is 9.71 µM (active); in assay [5], 6.6 µM (active).
For the molecule `CN1CCC(=O)N(CCOc2ccccc2)CC1`, the IC50 in assay [6] was 18.9 µM (active). Moreover, in assay [2], the AC50 is 77.4 µM (active).
As to `O=C1CNC(=O)/C1=C/NC12CC3CC(CC(C3)C1)C2`, the IC50 in assay [1] was 19.4 µM (inactive).
Regarding `Cc1ccc(-n2cc3ccc([N+](=O)[O-])cc3n2)cc1`, the IC50 in assay [7] was 34.7 µM (active); in assay [8], 12.5 µM (active); in [10], 17.2 µM (active); in assay [11] it was 59.9 µM (active). For the same molecule, the EC50 in assay [9] was > 260 µM (inconclusive).
With `Oc1ccc(Cl)cc1N=Nc1ccccc1`, the IC50 in [7] is 23.6 µM (active); in assay [8], 7.8 µM (active); in assay [10], 35.4 µM (active); in assay [11], > 100 µM (inactive).
On to `Oc1nc(SCc2ccc(Cl)cc2)nc2ccsc12`, for which the IC50 in [7] is 15.2 µM (active); in [8], 8.53 µM (active); in assay [10], 6.14 µM (active); in [11], 68.7 µM (active). Besides, the EC50 in assay [9] is 21.9 µM (active).
Take `CC(=O)Nc1ccc(Oc2nc(-c3ccccn3)nc3ccccc23)cc1`: the IC50 in assay [12] was 43.5 µM (active). The concentration at half-maximal activity (AC50) in [2] is 106 µM (active).
As to `CC[C@]12c3[nH]c4ccc(OC)cc4c3CCN1C(=O)C(CC(=O)NCCCN(C)C)C[C@@H]2C(=O)N1CCN(C(=O)c2ccco2)CC1` (stereo partly specified), the IC50 in [1] is 35.3 µM (inactive).
With `COc1ccc(CCNC(=O)c2c(C)cc(=O)oc2C)cc1OC`, the AC50 in [3] is 57.6 µM (active).

For orientation: IC50 means the midpoint of a concentration-inhibition curve. As usually defined, the AC50 is the concentration giving half of the maximal activity seen. What is called EC50 is the concentration giving half of the maximal effect.
